Our source for the IC50 values is patent US12162878B2 (HINOVA PHARMACEUTICALS INC., priority 2018, dated 2024).

The assay relates to CWR22RV1 cells. Nature of the assay: Inhibition of proliferation of CWR22RV1 cells (CCK-8). In kind it is cell-based, human. Particulars: Homo sapiens, CWR22Rv1, 144 h, 6 days. As for the experimental part:
• CWR22RV1 cell line (Cell Bank of Chinese Academy of Sciences, TCHu100) • FBS (Gibco, Cat. No. 10099-141) • 0.01M PBS (Biosharp, Cat. No. 162262) • RIPM1640 (Hyclone, Cat. No. 308090.01) • Penicillin-Streptomycin (Hyclone, Cat. No. SV30010) • Cell counting kit-8 (Signalway Antibody, Cat. No. CP002) • DMSO (Sigma, Cat. No. D5879) • Centrifuge Tube, 15 ml (Excell Bio, Cat. No. CS015-0001) • Cell Culture Dish, (Excell Bio, Cat. No. CS016-0128) • 96-well cell culture cluster (Corning, Cat. No. 3599) • 2. Experimental method (1) Preparation of Buffer
1) CWR22RV1 cells were subcultured in cell culture medium, and the cells in good growth condition were seeded in a 96-well plate, 80 μL for each well, thus the number of cells per well was 1500, then the plate was cultured overnight in a 37° C., 5% CO2 cell incubator.
2) The drug was prepared with dimethyl sulfoxide (DMSO) as a 30 mM stock solution. Prior to use, the solution was diluted 3 times with DMSO, and then diluted with a 3-fold gradient to obtain 9 concentration gradients. Then, each concentration of the compound was further diluted 200 times with the culture solution (to ensure that DMSO concentration in the culture system was 0.1%), 2 repeat wells for each concentration. The diluted solution of each compound (20 μL) was added to the cell culture well (with a final concentration of 10 μM, 3.3 μM, 1.1 μM . . . ), and shaken gently for mixing. In addition, three negative control wells containing only cells and three blank control wells containing only culture medium (20 μL DMSO diluted 200 times with culture medium being added to six wells) were included.
(1) After culturing for 6 days, 10 μL CCK-8 was added to each well and cultured for additional 2.5 h in a 37° C., 5% CO2 cell incubator.
(2) The absorbance (OD value) at 450 nm was measured with a multifunctional microplate reader.
(3) The data was analyzed by the Dose-response-inhibition equation in the software GraphPad Prism6, and the IC50 value was obtained.
`CCS(=O)(=O)c1ccc(N2CC3(CCC3)C2)c(-c2cn(C)c(=O)c3[nH]ccc23)c1` [Compound 33, 4-(5-(ethylsulfonyl)-2-(2-aza-spiro[3.3]heptan-2-yl)phenyl)-6-methyl-1H-pyrrolo[2,3-c]pyridin-7(6H)-one]: half-maximal inhibition (IC50) was put at 45 nM.
For the compound `[2H]C([2H])([2H])n1cc(-c2cc(S(C)(=O)=O)ccc2N2CCCC3(CC3)C2)c2cc[nH]c2c1=O` [Compound 57, 6-trideuteromethyl-4-(5(methylsulfonyl)-2-(5-aza-spiro[2.5]octan-5-yl)phenyl)-1H-pyrrolo[2,3-c]pyridin-7(6H)-one], half-maximal inhibition (IC50) required 25 nM. This IC50 lies about 1.8-fold lower than the previous one.
For `[2H]C([2H])([2H])n1cc(-c2cc(S(=O)(=O)C(C)C)ccc2N2CCC3(CC2)CC3)c2cc[nH]c2c1=O` [Compound 234, 4-(5-(isopropylsulfonyl)-2-(6-aza-spiro[2.5]octan-6-yl)phenyl)-6-trideuteromethyl-1H-pyrrolo[2,3-c]pyridin-7(6H)-one], the half-inhibitory concentration (IC50) is 0.9 nM.
In the case of `[2H]C([2H])([2H])n1cc(-c2cc(S(=O)(=O)CCCC)ccc2N2CC3(COC3)C2)c2cc[nH]c2c1=O` [Compound 66, 4-(5-(butylsulfonyl)-2-(2-oxa-6-aza-spiro[3.3]heptan-6-yl)phenyl)-6-trideuteromethyl-1H-pyrrolo[2,3-c]pyridin-7(6H)-one] it was 520 nM; in that of `Cn1cc(-c2cc(C(=O)N3CCS(=O)(=O)CC3)ccc2N2CCC3(CC2)CC3)c2cc[nH]c2c1=O` [Compound 224, 4-(5-(1,1-dioxothiomorpholine-4-carbonyl)-2-(6-aza-spiro[2.5]octan-6-yl)phenyl)-6-methyl-1H-pyrrolo[2,3-c]pyridin-7(6H)-one], 62 nM.
For the compound `[2H]C([2H])([2H])n1cc(-c2cc(S(C)(=O)=O)ccc2N2CC3(CCC3)C2)c2cc[nH]c2c1=O` [Compound 60, 6-trideuteromethyl-4-(5-(methylsulfonyl)-2-(2-aza-spiro[3.3]heptan-2-yl)phenyl)-1H-pyrrolo[2,3-c]pyridin-7(6H)-one], half-maximal inhibition (IC50) was put at 39 nM.
Compound `Cn1cc(-c2cc(NS(C)(=O)=O)ccc2N2CCCC3(CC3)C2)c2cc[nH]c2c1=O` [Compound 71, N-(3-(6-methyl-7-oxo-6,7-dihydro-1H-pyrrolo[2,3-c]pyridin-4-yl)-4-(5-aza-spiro[2.5]octan-5-yl)phenyl)methylsulfonamide] yielded an IC50 of 94 nM.
Take `Cn1cc(-c2cc(S(=O)(=O)C3CC3)ccc2N2CC3(CCC3)C2)c2cc[nH]c2c1=O` [Compound 29, 4-(5-(cyclopropylsulfonyl)-2-(2-aza-spiro[3.3]heptan-2-yl)phenyl)-6-methyl-1H-pyrrolo[2,3-c]pyridin-7(6H)-one]: the half-inhibitory concentration (IC50) worked out at 45 nM.
The compound `Cn1cc(-c2cc(C(C)(C)O)ccc2N2CCC3(CC2)CC3)c2cc[nH]c2c1=O` [Compound 225, 4-(5-(2-hydroxypropan-2-yl)-2-(6-aza-spiro[2.5]octan-6-yl)phenyl)-6-methyl-1H-pyrrolo[2,3-c]pyridin-7(6H)-one] came in with an IC50 of 130 nM. Against the preceding compound, the IC50 is about 2.9-fold higher.
`[2H]C([2H])([2H])n1cc(-c2cc(S(C)(=O)=O)ccc2N2CCC3(CC2)CC3C(=O)O)c2cc[nH]c2c1=O` (stereo not shown) [Compound 69, 6-(2-(6-trideuteromethyl-7-oxo-6,7-dihydro-1H-pyrrolo[2,3-c]pyridin-4-yl)-4-(methylsulfonyl)phenyl)-6-aza-spiro[2.5]octan-1-carboxylic acid] displayed an IC50 of 570 nM. This IC50 lies about 4.4-fold higher than the previous one.
`[2H]C([2H])([2H])n1cc(-c2cc(NS(=O)(=O)CC)ccc2N2CCCC3(CC3)C2)c2cc[nH]c2c1=O` [Compound 42, N-(3-(6-trideuteromethyl-7-oxo-6,7-dihydro-1H-pyrrolo[2,3-c]pyridin-4-yl)-4-(5-aza-spiro[2.5]octan-5-yl)phenyl)ethylsulfonamide] yielded an IC50 of 30 nM.
For the compound `Cn1cc(-c2cc(NS(=O)(=O)C3CC3)ccc2N2CC3(COC3)C2)c2cc[nH]c2c1=O` [Compound 18, N-(3-(6-methyl-7-oxo-6,7-dihydro-1H-pyrrolo[2,3-c]pyridin-4-yl)-4-(2-oxa-6-aza-spiro[3.3]heptan-6-yl)phenyl)cyclopropanesulfonamide], 520 nM corresponded to half-maximal inhibition (IC50).
In the case of `[2H]C([2H])([2H])n1cc(-c2cc(NS(=O)(=O)C3CC3)ccc2N2CC3(COC3)C2)c2cc[nH]c2c1=O` [Compound 51, N-(3-(6-trideuteromethyl-7-oxo-6,7-dihydro-1H-pyrrolo[2,3-c]pyridin-4-yl)-4-(2-oxa-6-aza-spiro[3.3]heptan-6-yl)phenyl) cyclopropanesulfonamide] it was 490 nM; in that of `CCS(=O)(=O)c1ccc(N2CC3(COC3)C2)c(-c2cn(C)c(=O)c3[nH]ccc23)c1` [Compound 35, 4-(5-(ethylsulfonyl)-2-(2-oxa-6-aza-spiro[3.3]heptan-6-yl)phenyl)-6-methyl-1H-pyrrolo[2,3-c]pyridin-7(6H)-one], 440 nM; in that of `Cn1cc(-c2cc(S(C)(=O)=O)ccc2N2CC3(CCC3)C2)c2cc[nH]c2c1=O` [Compound 30, 6-methyl-4-(5-(methylsulfonyl)-2-(2-aza-spiro[3.3]heptan-2-yl)phenyl)-1H-pyrrolo[2,3-c]pyridin-7(6H)-one], 38 nM.
`Cn1cc(-c2cc(NS(C)(=O)=O)ccc2N2CC3(CCC3)C2)c2cc[nH]c2c1=O` [Compound 11, N-(3-(6-methyl-7-oxo-6,7-dihydro-1H-pyrrolo[2,3-c]pyridin-4-yl)-4-(2-aza-spiro[3.3]heptan-2-yl)phenyl)methanesulfonamide] had an IC50 of 30 nM.
Turning to `[2H]C([2H])([2H])n1cc(-c2cc(S(=O)(=O)NCC)ccc2N2CCC3(CC2)CC3)c2cc[nH]c2c1=O` [Compound 197, N-ethyl-3-(6-trideuteromethyl-7-oxo-6,7-dihydro-1H-pyrrolo [2,3-c]pyridin-4-yl)-4-(6-aza-spiro[2.5]octan-6-yl)benzenesulfonamide], it took 5 nM to reach half-maximal inhibition (IC50). This IC50 is about 6-fold lower than that of the compound before.
`CCS(=O)(=O)Nc1ccc(N2CC3(COC3)C2)c(-c2cn(C)c(=O)c3[nH]ccc23)c1` [Compound 16, N-(3-(6-methyl-7-oxo-6,7-dihydro-1H-pyrrolo[2,3-c]pyridin-4-yl)-4-(2-oxa-6-aza-spiro[3.3]heptan-6-yl)phenyl)ethanesulfonamide] showed a 50% inhibitory concentration (IC50) of 380 nM. This IC50 lies about 76-fold higher than the previous one.
`[2H]C([2H])([2H])n1cc(-c2cc(NS(=O)(=O)CC)ccc2N2CC3(CCC3)C2)c2cc[nH]c2c1=O` [Compound 47, N-(3-(6-trideuteromethyl-7-oxo-6,7-dihydro-1H-pyrrolo[2,3-c]pyridin-4-yl)-4-(2-aza-spiro[3.3]heptan-2-yl)phenyl)ethanesulfonamide]: the IC50 is 50 nM.
Compound `Cn1cc(-c2cc(NS(=O)(=O)C3COC3)ccc2N2CCC3(CC3)C2)c2cc[nH]c2c1=O` [Compound 191, N-(3-(6-methyl-7-O-6,7-dihydro-1H-pyrrolo[2,3-c]pyridin-4-yl)-4-(5-aza-spiro[2.4]heptan-2-yl)phenyl)oxetane-3-ylsulfonamide] returned an IC50 of 140 nM.
For the compound `Cc1c[nH]c2c(=O)n(C)cc(-c3cc(S(C)(=O)=O)ccc3N3CCC4(CC3)CC4)c12` [Compound 182, 3,6-dimethyl-4-(5-(methylsulfonyl)-2-(6-aza-spiro[2.5]octan-6-yl)phenyl)-1H-pyrrolo[2,3-c]pyridin-7(6H)-one], the 50% inhibitory concentration (IC50) was determined as 40 nM. This IC50 lies about 3.5-fold lower than the previous one.
On to `Cn1cc(-c2cc(S(=O)(=O)C3CC3)ccc2N2CC3(COC3)C2)c2cc[nH]c2c1=O` [Compound 37, 4-(5-(cyclopropylsulfonyl)-2-(2-oxa-6-aza-spiro[3.3]heptan-6-yl)phenyl)-6-methyl-1H-pyrrolo[2,3-c]pyridin-7(6H)-one], for which the IC50 was 490 nM.
In the case of `Cn1cc(-c2cc(NS(C)(=O)=O)ccc2N2CC3CC2CO3)c2cc[nH]c2c1=O` (stereo not shown) [Compound 192, N-(4-(2-oxa-5-azabicyclo[2.2.1]heptan-5-yl)-3-(6-methyl-7-oxo-6,7-dihydro-1H-pyrrolo[2,3-c]pyridin-4-yl)phenyl)methanesulfonamide] it was 310 nM.
As for `[2H]C([2H])([2H])n1cc(-c2cc(S(=O)(=O)C3CC3)ccc2N2CC3(COC3)C2)c2cc[nH]c2c1=O` [Compound 67, 4-(5-(cyclopropylsulfonyl)-2-(2-oxa-6-aza-spiro[3.3]heptan-6-yl)phenyl)-6-trideuteromethyl-1H-pyrrolo[2,3-c]pyridin-7(6H)-one], the midpoint of inhibition, the IC50, lay at 490 nM. Compared with the last compound, the IC50 is about 1.6-fold higher.
For the compound `[2H]C([2H])([2H])n1cc(-c2cc(S(N)(=O)=O)ccc2N2CCC3(CC2)CC3)c2cc[nH]c2c1=O` [Compound 201, 3-(6-trideuteromethyl-7-oxo-6,7-dihydro-1H-pyrrolo[2,3-c]pyridin-4-yl)-4-(6-azaspiro[2.5]octan-6-yl)benzenesulfonamide], half-maximal inhibition (IC50) was put at 1.4 nM.

A word on the IC50: it is the concentration at which inhibition is half-maximal. High values mean lower potency, low ones higher potency.
